From US20250084039A1, “4-SUBSTITUTED AMINOISOQUINOLINE DERIVATIVES” (Purdue Research Foundation, priority 2016, published 2025)
Values joined by “and” are separate entries in the source; they are usually repeats but may differ in a detail not shown here. Equal entries are not always repeated. Where two headings read alike, the source gives them in different places.

Assays:
[1] = target: ITK (Homo sapiens (Human), UniProt Q08881); assay: Reaction Biology HotSpot kinase assay; format: biochemical; conditions: 500 nM compound; for inhibition at 0.5 µM: read-out: Percentage kinase inhibition ITK
Chain of ITK (Q08881 whole entry): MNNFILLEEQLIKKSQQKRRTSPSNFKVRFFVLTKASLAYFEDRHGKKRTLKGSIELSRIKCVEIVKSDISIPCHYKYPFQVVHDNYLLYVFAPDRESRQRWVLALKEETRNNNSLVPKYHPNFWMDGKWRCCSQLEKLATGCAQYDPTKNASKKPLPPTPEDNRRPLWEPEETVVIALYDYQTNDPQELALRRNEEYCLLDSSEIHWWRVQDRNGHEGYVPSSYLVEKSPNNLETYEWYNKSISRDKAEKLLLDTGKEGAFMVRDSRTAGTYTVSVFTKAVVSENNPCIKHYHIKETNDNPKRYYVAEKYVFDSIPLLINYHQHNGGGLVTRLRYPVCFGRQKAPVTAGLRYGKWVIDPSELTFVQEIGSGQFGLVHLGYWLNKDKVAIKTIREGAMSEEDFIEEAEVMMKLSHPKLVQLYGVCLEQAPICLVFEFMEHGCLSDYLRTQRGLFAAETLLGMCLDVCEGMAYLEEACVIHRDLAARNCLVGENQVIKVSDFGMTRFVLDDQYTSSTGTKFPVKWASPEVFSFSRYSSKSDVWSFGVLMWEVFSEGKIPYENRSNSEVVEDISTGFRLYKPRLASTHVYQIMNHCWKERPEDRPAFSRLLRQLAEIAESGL
Summary of the method: (§1)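 Each compound was tested at 500 nM, with 33P incorporation from ATP (100 μM final, including [γ-33P]ATP) measured by P81 paper capture after a 2 h room-temperature reaction.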

[2] = target: IKKa/CHUK (Homo sapiens (Human), UniProt O15111); assay: Reaction Biology HotSpot kinase assay; format: biochemical; conditions: 500 nM compound; for inhibition at 0.5 µM: read-out: Percentage kinase inhibition IKKa/CHUK
Chain of IKKa/CHUK (O15111 whole entry): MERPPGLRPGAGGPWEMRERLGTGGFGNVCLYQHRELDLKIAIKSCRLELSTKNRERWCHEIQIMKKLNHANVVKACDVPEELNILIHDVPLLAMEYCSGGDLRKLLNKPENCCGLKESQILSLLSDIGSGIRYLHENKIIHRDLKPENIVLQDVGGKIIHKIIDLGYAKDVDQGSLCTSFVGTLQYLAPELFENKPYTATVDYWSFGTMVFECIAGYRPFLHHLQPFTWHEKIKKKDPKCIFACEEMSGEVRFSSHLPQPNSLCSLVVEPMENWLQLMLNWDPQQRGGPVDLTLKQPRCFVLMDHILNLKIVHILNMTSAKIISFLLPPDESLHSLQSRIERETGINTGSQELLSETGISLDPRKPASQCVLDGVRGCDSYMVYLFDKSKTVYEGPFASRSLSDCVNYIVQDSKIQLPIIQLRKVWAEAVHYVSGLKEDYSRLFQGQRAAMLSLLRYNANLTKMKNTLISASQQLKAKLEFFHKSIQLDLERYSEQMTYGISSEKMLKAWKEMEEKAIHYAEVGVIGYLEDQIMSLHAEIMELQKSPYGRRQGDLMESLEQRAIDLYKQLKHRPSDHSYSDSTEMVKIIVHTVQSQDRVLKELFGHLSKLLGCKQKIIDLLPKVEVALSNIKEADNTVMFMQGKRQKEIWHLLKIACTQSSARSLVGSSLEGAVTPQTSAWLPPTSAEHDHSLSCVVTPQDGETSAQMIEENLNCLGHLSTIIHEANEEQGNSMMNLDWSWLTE
Summary of the method: as §1

[3] = target: AKT2 (Homo sapiens (Human), UniProt P31751); assay: Reaction Biology HotSpot kinase assay; format: biochemical; conditions: 500 nM compound; for inhibition at 0.5 µM: read-out: Percentage kinase inhibition AKT2
Chain of AKT2 (P31751 whole entry): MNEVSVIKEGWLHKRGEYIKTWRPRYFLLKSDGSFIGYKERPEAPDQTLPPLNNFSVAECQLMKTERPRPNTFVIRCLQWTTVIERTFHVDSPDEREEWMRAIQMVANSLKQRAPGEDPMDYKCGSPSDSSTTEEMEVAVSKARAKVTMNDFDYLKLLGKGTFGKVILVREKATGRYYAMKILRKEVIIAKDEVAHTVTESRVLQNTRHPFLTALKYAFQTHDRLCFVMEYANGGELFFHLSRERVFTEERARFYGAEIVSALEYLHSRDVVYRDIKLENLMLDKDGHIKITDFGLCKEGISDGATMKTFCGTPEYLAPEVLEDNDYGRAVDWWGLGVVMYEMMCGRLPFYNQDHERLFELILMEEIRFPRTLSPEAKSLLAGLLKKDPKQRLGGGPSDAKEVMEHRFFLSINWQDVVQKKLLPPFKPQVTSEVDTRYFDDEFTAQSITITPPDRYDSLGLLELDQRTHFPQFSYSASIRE
Summary of the method: as §1

[4] = target: FRK/PTK5 (Homo sapiens (Human), UniProt P42685); assay: Reaction Biology HotSpot kinase assay; format: biochemical; conditions: 500 nM compound; for inhibition at 0.5 µM: read-out: Percentage kinase inhibition FRK/PTK5
Chain of FRK/PTK5 (P42685 whole entry): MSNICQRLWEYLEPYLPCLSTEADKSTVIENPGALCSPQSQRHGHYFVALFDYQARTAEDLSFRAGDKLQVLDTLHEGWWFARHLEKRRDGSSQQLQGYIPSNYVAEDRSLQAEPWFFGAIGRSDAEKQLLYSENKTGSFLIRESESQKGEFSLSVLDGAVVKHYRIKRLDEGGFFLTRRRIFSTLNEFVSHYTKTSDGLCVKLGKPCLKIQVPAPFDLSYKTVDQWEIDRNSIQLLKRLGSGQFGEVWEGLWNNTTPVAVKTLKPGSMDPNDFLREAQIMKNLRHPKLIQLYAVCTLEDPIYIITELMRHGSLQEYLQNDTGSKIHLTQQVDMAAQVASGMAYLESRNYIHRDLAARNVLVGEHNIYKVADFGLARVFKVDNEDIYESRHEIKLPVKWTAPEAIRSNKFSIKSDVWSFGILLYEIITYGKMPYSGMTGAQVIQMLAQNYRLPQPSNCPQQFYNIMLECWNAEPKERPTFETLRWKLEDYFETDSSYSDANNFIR
Summary of the method: as §1

[5] = target: TGFBR2 (Homo sapiens (Human), UniProt P37173); assay: Reaction Biology HotSpot kinase assay; format: biochemical; conditions: 500 nM compound; for inhibition at 0.5 µM: read-out: Percentage kinase inhibition TGFBR2
Chain of TGFBR2 (P37173 23-567): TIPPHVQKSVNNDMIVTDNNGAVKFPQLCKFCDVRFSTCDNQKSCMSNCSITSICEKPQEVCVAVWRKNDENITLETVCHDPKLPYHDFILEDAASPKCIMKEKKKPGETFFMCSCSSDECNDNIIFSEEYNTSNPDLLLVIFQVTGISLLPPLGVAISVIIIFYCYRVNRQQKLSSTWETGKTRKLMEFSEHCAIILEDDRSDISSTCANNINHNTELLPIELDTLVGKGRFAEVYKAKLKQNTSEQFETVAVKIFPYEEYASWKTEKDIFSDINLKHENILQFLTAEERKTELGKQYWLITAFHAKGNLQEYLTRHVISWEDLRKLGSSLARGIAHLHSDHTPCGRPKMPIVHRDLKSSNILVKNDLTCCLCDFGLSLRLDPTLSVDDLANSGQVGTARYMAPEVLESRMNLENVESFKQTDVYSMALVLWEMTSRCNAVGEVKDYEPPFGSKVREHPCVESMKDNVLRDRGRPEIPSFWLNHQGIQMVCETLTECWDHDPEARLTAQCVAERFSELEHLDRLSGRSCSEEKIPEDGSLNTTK
Summary of the method: as §1

[6] = test system: MCF-7; assay: Proliferation inhibition at single concentration (CellTiter-Blue); format: cell-based; conditions: 1 μM compound
[7] = test system: HeLa; assay: as above; format: cell-based; conditions: 1 μM compound
[8] = test system: HCT116; assay: as above; format: cell-based; conditions: 1 μM compound
[9] = test system: MV4-11; assay: IC50 determination (proliferation assay, CellTiter-Blue); format: cell-based
Summary of the method: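 MOLM14 and MV4-11 cells seeded about 18 h before compound addition (DMSO-diluted), then 72 h exposure.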

[10] = target: MEKK2 (Homo sapiens (Human), UniProt Q9Y2U5); assay: Reaction Biology HotSpot kinase assay; format: biochemical; conditions: 500 nM compound; read-out: Percentage kinase inhibition MEKK2
Summary of the method: as §1

[11] = target: FGFR4 (Homo sapiens (Human), UniProt P22455); assay: Reaction Biology HotSpot kinase assay; format: biochemical; conditions: 500 nM compound; read-out: Percentage kinase inhibition FGFR4
Summary of the method: as §1

[12] = target: RIPK4 (Homo sapiens (Human), UniProt P57078); assay: Reaction Biology HotSpot kinase assay; format: biochemical; conditions: 500 nM compound; read-out: Percentage kinase inhibition RIPK4
Summary of the method: as §1

[13] = target: FGFR3 (Homo sapiens (Human), UniProt P22607); assay: Reaction Biology HotSpot kinase assay; format: biochemical; conditions: 500 nM compound; read-out: Percentage kinase inhibition FGFR3
Summary of the method: as §1

[14] = target: RIPK3 (Homo sapiens (Human), UniProt Q9Y572); assay: Reaction Biology HotSpot kinase assay; format: biochemical; conditions: 500 nM compound; read-out: Percentage kinase inhibition RIPK3
Summary of the method: as §1

[15] = target: FGFR2 (Homo sapiens (Human), UniProt P21802); assay: Reaction Biology HotSpot kinase assay; format: biochemical; conditions: 500 nM compound; read-out: Percentage kinase inhibition FGFR2
Summary of the method: as §1

[16] = target: FLT3 (Homo sapiens (Human), UniProt P36888); assay: DiscoverX Kd Elect binding
Chain of FLT3 (P36888 27-993): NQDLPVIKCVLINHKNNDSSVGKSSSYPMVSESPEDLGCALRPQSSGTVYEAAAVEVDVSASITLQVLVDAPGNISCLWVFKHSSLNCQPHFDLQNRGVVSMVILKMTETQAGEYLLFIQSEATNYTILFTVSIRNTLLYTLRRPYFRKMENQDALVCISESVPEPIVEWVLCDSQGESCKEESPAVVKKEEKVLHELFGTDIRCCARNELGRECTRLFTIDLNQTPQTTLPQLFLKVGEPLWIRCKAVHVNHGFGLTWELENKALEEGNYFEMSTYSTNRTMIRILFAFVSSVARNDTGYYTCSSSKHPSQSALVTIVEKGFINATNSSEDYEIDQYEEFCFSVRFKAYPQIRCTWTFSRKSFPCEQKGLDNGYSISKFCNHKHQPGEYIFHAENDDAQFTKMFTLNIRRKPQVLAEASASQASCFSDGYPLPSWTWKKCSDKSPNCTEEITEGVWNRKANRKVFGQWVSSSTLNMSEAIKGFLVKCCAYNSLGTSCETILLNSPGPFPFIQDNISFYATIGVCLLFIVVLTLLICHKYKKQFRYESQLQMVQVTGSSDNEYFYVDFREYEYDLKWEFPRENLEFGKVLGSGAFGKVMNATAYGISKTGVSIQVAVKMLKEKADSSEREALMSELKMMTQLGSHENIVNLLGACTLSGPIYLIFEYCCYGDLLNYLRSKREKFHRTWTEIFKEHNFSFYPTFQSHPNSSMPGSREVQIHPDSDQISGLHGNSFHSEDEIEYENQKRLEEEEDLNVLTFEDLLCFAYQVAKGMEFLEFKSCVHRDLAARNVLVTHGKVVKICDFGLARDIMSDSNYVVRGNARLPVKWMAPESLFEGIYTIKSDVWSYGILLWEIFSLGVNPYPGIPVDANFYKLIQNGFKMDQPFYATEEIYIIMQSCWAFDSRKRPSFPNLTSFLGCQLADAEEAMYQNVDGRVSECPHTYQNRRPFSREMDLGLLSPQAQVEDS
Description: Although the current drugs on the market or in clinical trials are relatively successful in killing the AML leukemia cells, they currently are unable to deal with secondary mutations that occur after TKI treatment, such as FLT3 ([…]).
HCK is expressed more in human primary leukemic stem cells than in human normal hematopoietic stem cells. […] Other protein kinases such as SYK, BRAF, p38 (p38MAPK), PDGFRα/β, FGFR1, RET, FLT4, Tie2 have also been linked to leukemia. […] (Table 9). The inhibition of the Src-kinase family could be important clinically because these kinases are downstream of FLT3. In the event of FLT3 mutation, the inhibition of the Src-family kinases could still lead to proliferation inhibition.

[17] = target: DNA-PK (Homo sapiens (Human), UniProt P78527); assay: Reaction Biology HotSpot kinase assay; format: biochemical; conditions: 500 nM compound; read-out: Percentage kinase inhibition DNA-PK
Summary of the method: as §1

[18] = target: ABL1 phosphorylated (Homo sapiens (Human), UniProt P00519); assay: DiscoverX Kd Elect binding
Chain of ABL1 phosphorylated (P00519 whole entry): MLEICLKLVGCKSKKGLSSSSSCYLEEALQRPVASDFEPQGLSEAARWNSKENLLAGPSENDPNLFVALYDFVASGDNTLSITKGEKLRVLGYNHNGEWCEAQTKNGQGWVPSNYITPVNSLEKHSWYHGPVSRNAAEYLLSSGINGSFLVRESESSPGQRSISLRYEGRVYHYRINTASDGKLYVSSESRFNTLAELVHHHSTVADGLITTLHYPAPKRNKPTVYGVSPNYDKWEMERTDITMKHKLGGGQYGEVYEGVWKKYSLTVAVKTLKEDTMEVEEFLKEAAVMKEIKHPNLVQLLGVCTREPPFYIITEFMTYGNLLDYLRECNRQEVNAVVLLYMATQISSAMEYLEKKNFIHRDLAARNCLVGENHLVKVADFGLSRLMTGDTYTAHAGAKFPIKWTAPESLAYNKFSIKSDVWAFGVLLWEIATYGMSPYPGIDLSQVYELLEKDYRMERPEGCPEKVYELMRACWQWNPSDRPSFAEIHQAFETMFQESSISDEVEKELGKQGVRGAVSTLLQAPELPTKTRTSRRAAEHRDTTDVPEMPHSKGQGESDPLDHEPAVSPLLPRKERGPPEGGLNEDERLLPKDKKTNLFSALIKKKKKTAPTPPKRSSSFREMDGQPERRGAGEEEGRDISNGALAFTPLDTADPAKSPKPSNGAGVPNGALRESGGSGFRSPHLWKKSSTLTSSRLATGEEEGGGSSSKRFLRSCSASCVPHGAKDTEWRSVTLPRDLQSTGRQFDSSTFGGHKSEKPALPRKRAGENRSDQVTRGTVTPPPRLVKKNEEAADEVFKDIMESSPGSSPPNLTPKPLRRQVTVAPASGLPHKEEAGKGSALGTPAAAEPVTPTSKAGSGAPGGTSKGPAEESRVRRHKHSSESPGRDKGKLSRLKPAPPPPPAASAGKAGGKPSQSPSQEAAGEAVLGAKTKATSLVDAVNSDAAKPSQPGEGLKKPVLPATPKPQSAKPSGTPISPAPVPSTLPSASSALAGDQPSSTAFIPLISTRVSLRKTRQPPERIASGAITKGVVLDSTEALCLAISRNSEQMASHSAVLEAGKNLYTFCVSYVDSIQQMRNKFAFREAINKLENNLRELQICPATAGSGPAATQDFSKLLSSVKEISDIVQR

[19] = test system: NCI H1703 (NSCLC); assay: Activity against lung cancer cell line; format: cell-based; conditions: Homo sapiens, NCI-H1703

SMILES | IC50 [9] [nM] | inhibition at 0.5 µM [10] [%] | inhibition at 0.5 µM [11] [%] | inhibition at 0.5 µM [12] [%] | inhibition at 0.5 µM [13] [%] | inhibition at 0.5 µM [14] [%] | inhibition at 0.5 µM [15] [%] | proliferation inhibition in words, MV4-11 / AML [9] | IC50 ([9]; Homo sapiens, MV4-11) [nM] | Kd [16] | inhibition at 0.5 µM [1] [%] | inhibition at 0.5 µM [2] [%] | inhibition at 0.5 µM [3] [%] | inhibition at 0.5 µM [4] [%] | inhibition at 0.5 µM [17] [%] | inhibition at 0.5 µM [5] [%] | Kd [18] [nM] | IC50 [19] [nM] | also measured
CN(C)CC(O)CNC(=O)c1ccc(C#Cc2c(N)ncc3ccc(Cl)cc23)cc1 (stereo not shown) [HSM1702] | 71 ± 1.1 |  |  |  |  |  |  |  |  |  |  |  |  |  |  |  |  |  | Percentage kinase inhibition ITK [1]: 0%; Percentage kinase inhibition IKKa/CHUK [2]: 0%; Percentage kinase inhibition AKT2 [3]: 18%; Percentage kinase inhibition FRK/PTK5 [4]: 0%; Percentage kinase inhibition TGFBR2 [5]: 0%; Percent inhibition of proliferation MCF-7 [6]: 100%; Percent inhibition of proliferation HeLa [7]: 17%; Percent inhibition of proliferation HCT116 [8]: 33%
Cc1ccc(C(=O)Nc2ccc(CN3CCN(C)CC3)c(C(F)(F)F)c2)cc1C#Cc1cc(N)nc2ccccc12 [HSN285] |  | 0 | 0 | 25 | 0 | 0 | 0 | neither potent inhibitors of FLT3 nor active against MV4-11 or MOLM-14 | 721 ± 5.8 |  |  |  |  |  |  |  |  |  | 
Cc1ccc(C(=O)Nc2ccc(CN3CCN(C)CC3)c(C(F)(F)F)c2)cc1C#Cc1c(N)ncc2ccc(Cl)cc12 [HSN286] |  | 52 | 82 | 32 | 88 | 96 | 96 |  |  | 6.5 nM and 7.2 nM | 0 | 36 | 3 | 95 | 0 | 15 | 7.9 | 50 | inhibition at 1 µM ([6]; Homo sapiens, MCF7, read-out: Percent inhibition of proliferation MCF-7): 100%; inhibition at 1 µM ([7]; Homo sapiens, HeLa, read-out: Percent inhibition of proliferation HeLa): 100%; inhibition at 1 µM ([8]; Homo sapiens, HCT-116, read-out: Percent inhibition of proliferation HCT116): 100%
COc1cc2nc(N)nc(C#Cc3cc(C(=O)Nc4ccc(CN5CCN(C)CC5)c(C(F)(F)F)c4)ccc3C)c2cc1OC [HSN325] |  |  |  |  |  |  |  |  | 135 ± 5.87 |  | 1 | 6 | 0 | 49 | 0 | 0 |  |  | 
Cc1ccc(C(=O)Nc2ccc(CN3CCN(C)CC3)c(C(F)(F)F)c2)cc1C#Cc1cnc(N)c2ccccc12 [HSN334, 3-((1-aminoisoquinolin-4-yl)ethynyl)-4-methyl-N-(4-((4-methylpiperazin-1-yl)methyl)-3-(trifluoromethyl)phenyl)benzamide] | 1.38 ± 0.1 |  |  |  |  |  |  | potent proliferation inhibitors | < 1 | 5.1 nM |  |  |  |  |  |  | 12 | 98 | 
Cc1ccc(C(=O)Nc2ccc(CN3CCN(C)CC3)c(C(F)(F)F)c2)cc1C#Cc1cnc(N)c2ncccc12 [HSN356, 3-((8-amino-1,7-naphthyridin-5-yl)ethynyl)-4-methyl-N-(4-((4-methylpiperazin-1-yl)methyl)-3-(trifluoromethyl)phenyl)benzamide] |  |  |  |  |  |  |  | potent proliferation inhibitors |  | 1.3 nM |  |  |  |  |  |  | 1.2 | 88 | 
